From US9611281B2, “BODIPY derivatives and methods of synthesis and use thereof” (The Board of Regents of the University of Oklahoma, priority 2013, dated 2017)

Tests used:
[1] = test system: colon cancer tumors; test: H&E histology of tumors after SBDPiR690 PDT; type: in vivo, Balb/c mice; conditions: 1 day post treatment
Source text: To access the effect of SBDPiR690 on the tumor regions, tumor samples were collected from SBDPiR690 treated and control mice 1 day post treatment. The samples were fixed, embedded, sectioned, and stained using hematoxylin and eosin.

[2] = test system: colon-26 tumor model; test: In vivo PDT response following SBDPiR690 treatment; parameters: species or system Balb/c mice
Procedure: 25 animals were divided into 4 groups: control, dark control (SBDPiR690 only), light control (light only), and SBDPiR690-with light exposure (PDT). SBDPiR690 was intravenously injected into mice with colon-26 tumor model, followed by light illumination after 15 minutes postinjection using a light dose of 100 mW/cm^2 (FIGS. 28-29). Mice body weight and tumor response at high light doses (˜500 J cm^−2) were used for initial toxicity profiles.

[3] = Real time whole body imaging of SBDPiR690 clearance and biodistribution; parameters: species or system mice; conditions: mouse, in vivo
Procedure: The inherent fluorescent properties of SBDPiR690 enabled its use in real time whole body imaging to evaluate the clearance and biodistribution of the drug in organs, making it an applicable theranostic agent. The drug clears from organs and tissue by 24 hours, reducing the occurrence of skin photo-toxicity, which is a major problem among photosensitizers. […] These findings show the effectiveness of SBDPiR690 as a photosensitizer for use in PDT in clinical setting.

[4] = Optical properties (absorption, emission, extinction coefficient) of BDP635 and derivative SBDPiRs; type: physicochemical
[5] = Singlet oxygen generation, indirect method of DPBF photooxidation; conditions: DPBF photooxidation monitored at 410 nm
Procedure: Singlet oxygen generation and photostability: A singlet oxygen generation experiment on compound 53 using the indirect method of DPBF photooxidation was performed. There were strong similarities of the behavior of 53 towards DPBF with SBDPiR715. […] The photooxidation of DPBF was monitored by UV-vis spectrophotometer at 410 nm. […] Additionally, less than 30% of 53 photobleached under the harsh light illumination condition over a period of an hour, which is a strong evidence for photostability (FIG. 21).

[6] = test system: colon-26 tumors; test: In vivo SBDPiR715-mediated PDT
Procedure: PS: To obtain an injection solution of SBDPiR715, the emulsifier Tween 80 was used. Tween 80 is a nonionic surfactant, frequently used in vivo as a solubilizing agent for highly lipophilic therapeutics. The formulation procedure required dissolving the PS in a minimal amount of Tween 80 (100 μl). The paste was allowed to stand overnight. 5% Dextrose in phosphate-buffered saline (PBS) solution was added, and the solution was sonicated for 1 hour. The resulting green solution was filtered through a 0.2 μm membrane filter. To ensure the accuracy of the concentration, which might vary due to partial solubility of the PS, the exact concentration was confirmed by UV-visible spectral analysis of the solutions prior to dosing.
Cells and Animal Models: Colon-26 mouse carcinoma cells were obtained from the American Type Culture Collection (ATCC) and cultured in minimum essential medium supplemented with 10% (v/v) fetal calf serum (FCS), 50 U ml^−1 penicillin, 50 μg ml^−1 streptomycin, and 1% (v/v) L-glutamine. The cells were maintained in 5% CO2 (v/v) and 21% O2 (v/v) at 37° C. All animal experiments were approved by IACUC of the University of Oklahoma Health Sciences Center. Female BALB/c mice were received from Charles River at 6-8 weeks old. Balb/c mice were shaved on the upper back and depilated with Nair (Carter-Wallace Inc., New York, N.Y., USA). Mice were anesthetized with an i.p. injection of ketamine/xylazine cocktail (90 mg kg^−1 ketamine and 10 mg kg xylazine). One million colon-26 cells were injected subcutaneously in one dorsal neck area suspended in […] PBS. Tumors grew predictably in all the mice and reached a size of 4- to 6-mm diameter in 5-7 days, or 8-11 mm in 14-16 days after injection, at which time they were used for PDT.
SBDPiR715 in 1% Tween 80-5% Dextrose solvent was injected i.p. at a dose of 3 μmol/kg (2.2 mg/kg) and 5 μmol/kg (3.7 mg/kg) in 0.2 ml solution. Tumors were irradiated 6 hours, 24 hours, or 32 hours after the injection using a Lumacare LC-122M with a fiber-optic light delivery system (Lumacare, Newport Beach, Calif., USA) emitting light at 700 nm (±40 nm). […] No evident temperature increase was detected at the site of irradiation. Mice were anesthetized as described above, and the tumor-bearing limb was positioned under the spot. Total dose of 200-300 mW/cm^2 was delivered for 30 minutes (360-540 J cm^−2). Mice bearing colon-26 tumors were also irradiated without having received injection of SBDPiR715. Another group of animals was treated with SBDPiR715 i.p. without irradiation. After irradiation, mice were allowed to recover in an animal cotton blanket until they resumed normal activity. A positive tumor response was ascribed to tumors that appeared flat blackened or reddened scarp and necrotic tissue within a few days after PDT. Animals were considered cured after complete tumor regression and the absence of a palpable tumor.

[7] = Drug biodistribution of SBDPiR715; type: in vivo, Balb/c mice; conditions: 5 μmol/kg i.p., 24 hours postinjection
Procedure: Mice were injected via i.p. with SBDPiR715 (5 μmol/kg/3.7 mg/kg). After 24 hours postinjection, the mice (n=3) were euthanized by CO2 inhalation. Tissues were excised from major organs and tumor. Collected tissues were rinsed with PBS and blotted dry. One hundred milligram of excised tissue was homogenized with CHCl3 (1 ml). The homogenates were centrifuged at 5160 g for 20 minutes, and the supernatant was used for fluorescence measurement (excitation at 710 nm and emission at 754 nm). The amount of compound in each sample was evaluated relative to the standard curve and expressed in “mg/g of tissue” unit.

| Compound | tissue morphology (H&E) [1] | palpable tumor ([2]; 60 days post-treatment) | tumor volume ([2]; SBDPiR690-induced PDT) | tumor necrosis ([2]; after 24-72 h, light fluence 150 J cm^−2) | survival ([2]; after 60 days, SBDPiR690-induced PDT) [%] | oedema and inflammation ([2]; after PDT) | body weight ([2]; high light doses (~500 J cm^−2)) | clearance from organs and tissue [3] [h] | ε [4] | λabs [4] [nm] | λflu [4] [nm] | singlet oxygen generation [5] | extent of necrosis ([6]; 6 and 24 hour drug-light interval) | extent of necrosis ([6]; 32 hour drug-light interval) | tumor healing time ([6]; after PDT, with remodeling of damaged tissue) [days] | tumor response to PDT ([6]; all treatment groups (6, 24, 32 h drug-light interval), monitored for 90 days) | weight loss / visual signs of toxicity ([6]; treatment dose 5 μmol/kg (3.7 mg/kg) i.p.) | onset of tumor necrosis after PDT ([6]; treatment groups) | organ biodistribution [7] |
| --- | --- | --- | --- | --- | --- | --- | --- | --- | --- | --- | --- | --- | --- | --- | --- | --- | --- | --- | --- |
| F[B-]1(F)n2c(cc3sc(-c4ccccc4)cc32)C(C(F)(F)F)=C2C=c3sc(-c4ccccc4)cc3=[N+]21 [SBDPiR690, 2,8-Di(phenyl)-1-trifluoromethyl-dithieno[2,3-b]-[3,2-g]-5,5-difluoro-5-bora-3a,4a-diaza-s-indacene] | necrosis associated with the treated mice | no palpable tumor observed | elimination of tumors | Mass necrosis localized at the tumor region | 100 | oedema and inflammation was observable after 24 hours, but healed after a few days | fairly constant | ≤ 24 | 120 000 M^−1 cm^−1 | 688 | 700 | – | – | – | – | – | – | – | – |
| COc1ccc(-c2sc3c(c2Br)=[N+]2C(=C(C(F)(F)F)c4cc5sc(-c6ccc(OC)cc6)c(Br)c5n4[B-]2(F)F)C=3)cc1 [SBDPiR715] | – | – | – | – | – | – | – | – | – | – | – | effective singlet oxygen generation | necrosis spread to neighboring skin regions | confinement of necrosis to the tumor region | ~30 | complete tumor ablation | No weight loss or other visual signs of toxicity | mass necrosis and eschar within a day | a higher accumulation of SBDPiR715 was observed in the liver and spleen |
